Data taken from patent US20050152845A1, “Amorphous fluticasone 2-furoate, pharmaceutical compositions thereof and its conversion to the crystalline unsolvated form” (priority 2002, published 2005).
pEC50: −log10 of the molar value.

Legend:
[1] = tested on: thymus weight; experiment: Rat model of thymus involution; format: in vivo; details: 3 daily IT doses of 100 μg
[2] = tested on: lung eosinophilia; experiment: Ovalbumin sensitised Brown Norway rat eosinophilia model; format: in vivo; details: single dose of 30 μg, intra-tracheal suspension in saline 30 min prior to ovalbumin challenge
Protocol: Pharmacological activity in vivo was assessed in an ovalbumin sensitised Brown Norway rat eosinophilia model. This model is designed to mimic allergen induced lung eosinophilia, a major component of lung inflammation in asthma.

[3] = Pharmacokinetics after intra-tracheal dry powder dosing in the pig; format: in vivo; details: 1 mg intra-tracheal, LLOQ 10 pg/mL compound (I), 20pg/mL fluticasone propionate
Protocol: Serial blood samples were taken for up to 8 h following dosing.

[4] = tested on: NFκB; experiment: Transrepression reporter assay (firefly luciferase, NFκB promoter, TNFα stimulated) in A549 cells; format: cell-based; details: Homo sapiens, 1 h compound then 0.5ng/ml TNFα 15 hours, read-out: Transrepression (NFκB) ED50
Description: (§1) The glucocorticoid receptor (GR) can function in at least two distinct mechanisms, by upregulating gene expression through the direct binding of GR to specific sequences in gene promoters, and by downregulating gene expression that is being driven by other transcription factors (such as NFκB or AP-1) through their direct interaction with GR.
The first cell line contains the firefly luciferase reporter gene under the control of a synthetic promoter that specifically responds to activation of the transcription factor NFκB when stimulated with TNFα. The second cell line contains the renilla luciferase reporter gene under the control of a synthetic promotor that comprises 3 copies of the consensus glucocorticoid response element, and which responds to direct stimulation by glucocorticoids. Simultaneous measurement of transactivation and transrepression was conducted by mixing the two cell lines in a 1:1 ratio in 96 well plate (40,000 cells per well) and growing overnight at 37° C. Test compounds were dissolved in DMSO, and added to the cells at a final DMSO concentration of 0.7%. […] Dose response curves were constructed from which EC50 values were determined.

[5] = biological target: T1, glucocorticoid receptor (Homo sapiens, UniProt P04150); experiment: In vitro functional glucocorticoid assays, metabolite versus parent; format: cell-based
T1 construct: endogenous in cells
T1 sequence (P04150 1-777): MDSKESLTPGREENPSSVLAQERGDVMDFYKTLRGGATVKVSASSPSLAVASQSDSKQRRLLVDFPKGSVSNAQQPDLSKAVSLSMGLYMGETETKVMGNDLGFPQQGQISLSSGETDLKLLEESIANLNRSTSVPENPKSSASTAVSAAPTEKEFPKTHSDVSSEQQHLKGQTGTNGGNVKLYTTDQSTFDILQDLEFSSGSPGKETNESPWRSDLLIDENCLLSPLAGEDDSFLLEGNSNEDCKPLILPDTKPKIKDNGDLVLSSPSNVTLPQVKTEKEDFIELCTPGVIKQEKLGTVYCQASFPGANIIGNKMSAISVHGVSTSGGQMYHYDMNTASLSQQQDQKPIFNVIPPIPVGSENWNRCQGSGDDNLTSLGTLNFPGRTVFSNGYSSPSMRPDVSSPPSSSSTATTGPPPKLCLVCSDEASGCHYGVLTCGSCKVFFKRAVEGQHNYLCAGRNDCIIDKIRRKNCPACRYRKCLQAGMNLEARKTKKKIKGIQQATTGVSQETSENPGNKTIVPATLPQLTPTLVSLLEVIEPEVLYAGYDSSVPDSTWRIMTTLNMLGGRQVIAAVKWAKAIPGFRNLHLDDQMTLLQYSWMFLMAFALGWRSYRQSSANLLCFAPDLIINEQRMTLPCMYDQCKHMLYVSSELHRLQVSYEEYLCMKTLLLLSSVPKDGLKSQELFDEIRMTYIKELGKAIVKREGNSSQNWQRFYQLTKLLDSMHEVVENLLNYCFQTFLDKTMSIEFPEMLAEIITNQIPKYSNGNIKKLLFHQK
Protocol: Compound (I) undergoes highly efficient hepatic metabolism to yield the 17-β carboxylic acid (X) as the sole major metabolite in rat and human in vitro systems.
The functional assay was based on that described by K. P. Ray et al., Biochem J. (1997), 328, 707-715. A549 cells stably transfected with a reporter gene containing the NF-κB responsive elements from the ELAM gene promoter coupled to sPAP (secreted alkaline phosphatase) were treated with test compounds at appropriate doses for 1 hour at 37° C. The cells were then stimulated with tumour necrosis factor (TNF, 10ng/ml) for 16 hours, at which time the amount of alkaline phosphatase produced is measured by a standard colourimetric assay. Dose response curves were constructed from which EC50 values were estimated.
(§2) In a variant of the above method, to monitor these functions, two reporter plasmids have been generated and introduced separately into A549 human lung epithelial cells by transfection. […] After incubation for 1 h 0.5ng/ml TNFα (R&D Systems) was added and after a further 15 hours at 37° C., the levels of firefly and renilla luciferase were measured using the Packard Firelite kit following the manufacturers' directions. Dose response curves were constructed from which EC50 values were determined.

[6] = biological target: T2, glucocorticoid receptor (GR) (Homo sapiens, UniProt P04150); experiment: Transactivation reporter assay (renilla luciferase, glucocorticoid response element) in A549 cells; format: cell-based; details: 1 h compound then 0.5ng/ml TNFα 15 hours, read-out: Transactivation (GR) ED50
T2 construct: two reporter plasmids have been generated and introduced separately into A549 human lung epithelial cells by transfection; endogenous in cells; host or cells: A549 human lung epithelial cells stably carrying a renilla luciferase reporter with 3 copies of the consensus GRE
T2 sequence (P04150 1-777): T1 sequence (P04150 1-777)
Description: as §1
as §2, with “transfection. The first cell line contains the firefly luciferase reporter gene under the control of a synthetic promoter that specifically responds to activation of the transcription factor NFκB when stimulated with TNFα. The second cell line contains the renilla luciferase reporter gene under the control of a synthetic promotor that comprises 3 copies of the consensus glucocorticoid response element, and which responds to direct stimulation by glucocorticoids.” for “transfection.”

Row | reduction of thymus weight [1] [%] | time after dosing up to which quantifiable in plasma [3] | pEC50 [4] | fold less active than the parent compound [5] [fold] | pEC50 [6] | SMILES | inhibition of lung eosinophilia [2] [%]
1 | 78 | up to 8 hours |  |  |  | CCC(=O)O[C@]1(C(=O)SCF)[C@H](C)C[C@H]2[C@@H]3C[C@H](F)C4=CC(=O)C=C[C@]4(C)[C@@]3(F)[C@@H](O)C[C@@]21C [Fluticasone propionate, 6α, 9α-Difluoro-17α-(1-oxopropoxy)-11β-hydroxy-16α-methyl-3-oxo-androsta-1,4-diene-17β-carbothioic acid S-fluoromethyl ester, reference compound] | 41
2 |  |  | < 6.00 | > 1000 | < 6.60 | C[C@@H]1CCC2C3C[C@H](F)C4=CC(=O)C=C[C@]4(C)[C@@]3(F)[C@@H](O)C[C@]2(C)[C@@]1(OC(=O)c1ccco1)C(=O)O (stereo partly drawn) [Metabolite (X)] | 
